Results reported in the CheMixHub ionic liquid set.
± gives the uncertainty stated by the source.

Experiment: xn = mol fraction of the nth substance listed
Settings: 101 kPa

Compound: CCC(=O)[O-].C[NH2+]Cc1ccccc1 + CN(C)C=O
- viscosity (293.15 K, x1 = 0.006359): 0.956 ± 0.035 mPa·s
- viscosity (293.15 K, x1 = 0.01185): 0.969 ± 0.036 mPa·s
- viscosity (293.15 K, x1 = 0.01701): 0.989 ± 0.036 mPa·s
- viscosity (293.15 K, x1 = 0.02175): 1.007 ± 0.036 mPa·s
- viscosity (293.15 K, x1 = 0.02663): 1.016 ± 0.036 mPa·s
- viscosity (293.15 K, x1 = 0.03255): 1.045 ± 0.037 mPa·s
- viscosity (293.15 K, x1 = 0.0357): 1.057 ± 0.037 mPa·s
- viscosity (293.15 K, x1 = 0.04024): 1.072 ± 0.037 mPa·s
- viscosity (298.15 K, x1 = 0.006359): 0.914 ± 0.035 mPa·s
- viscosity (298.15 K, x1 = 0.01185): 0.926 ± 0.035 mPa·s
- viscosity (298.15 K, x1 = 0.01701): 0.944 ± 0.035 mPa·s
- viscosity (298.15 K, x1 = 0.02175): 0.958 ± 0.035 mPa·s
- viscosity (298.15 K, x1 = 0.02663): 0.966 ± 0.036 mPa·s
- viscosity (298.15 K, x1 = 0.03255): 0.991 ± 0.036 mPa·s
- viscosity (298.15 K, x1 = 0.0357): 1.001 ± 0.036 mPa·s
- viscosity (298.15 K, x1 = 0.04024): 1.015 ± 0.036 mPa·s
- viscosity (303.15 K, x1 = 0.006359): 0.877 ± 0.034 mPa·s
- viscosity (303.15 K, x1 = 0.01185): 0.888 ± 0.034 mPa·s
- viscosity (303.15 K, x1 = 0.01701): 0.902 ± 0.034 mPa·s
- viscosity (303.15 K, x1 = 0.02175): 0.915 ± 0.035 mPa·s
- viscosity (303.15 K, x1 = 0.02663): 0.922 ± 0.035 mPa·s
- viscosity (303.15 K, x1 = 0.03255): 0.944 ± 0.035 mPa·s
- viscosity (303.15 K, x1 = 0.0357): 0.953 ± 0.035 mPa·s
- viscosity (303.15 K, x1 = 0.04024): 0.965 ± 0.036 mPa·s
- viscosity (308.15 K, x1 = 0.006359): 0.845 ± 0.034 mPa·s
- viscosity (308.15 K, x1 = 0.01185): 0.854 ± 0.034 mPa·s
- viscosity (308.15 K, x1 = 0.01701): 0.866 ± 0.034 mPa·s
- viscosity (308.15 K, x1 = 0.02175): 0.878 ± 0.034 mPa·s
- viscosity (308.15 K, x1 = 0.02663): 0.884 ± 0.034 mPa·s
- viscosity (308.15 K, x1 = 0.03255): 0.903 ± 0.035 mPa·s
- viscosity (308.15 K, x1 = 0.0357): 0.911 ± 0.035 mPa·s
- viscosity (308.15 K, x1 = 0.04024): 0.921 ± 0.035 mPa·s
- viscosity (313.15 K, x1 = 0.006359): 0.816 ± 0.033 mPa·s
- viscosity (313.15 K, x1 = 0.01185): 0.824 ± 0.033 mPa·s
- viscosity (313.15 K, x1 = 0.01701): 0.835 ± 0.033 mPa·s
- viscosity (313.15 K, x1 = 0.02175): 0.845 ± 0.034 mPa·s
- viscosity (313.15 K, x1 = 0.02663): 0.85 ± 0.034 mPa·s
- viscosity (313.15 K, x1 = 0.03255): 0.866 ± 0.034 mPa·s
- viscosity (313.15 K, x1 = 0.0357): 0.874 ± 0.034 mPa·s
- viscosity (313.15 K, x1 = 0.04024): 0.882 ± 0.034 mPa·s
- viscosity (318.15 K, x1 = 0.006359): 0.79 ± 0.033 mPa·s
- viscosity (318.15 K, x1 = 0.01185): 0.797 ± 0.033 mPa·s
- viscosity (318.15 K, x1 = 0.01701): 0.807 ± 0.033 mPa·s
- viscosity (318.15 K, x1 = 0.02175): 0.815 ± 0.033 mPa·s
- viscosity (318.15 K, x1 = 0.02663): 0.819 ± 0.033 mPa·s
- viscosity (318.15 K, x1 = 0.03255): 0.834 ± 0.033 mPa·s
- viscosity (318.15 K, x1 = 0.0357): 0.841 ± 0.034 mPa·s
- viscosity (318.15 K, x1 = 0.04024): 0.848 ± 0.034 mPa·s
- viscosity (323.15 K, x1 = 0.006359): 0.766 ± 0.032 mPa·s
- viscosity (323.15 K, x1 = 0.01185): 0.772 ± 0.032 mPa·s
- viscosity (323.15 K, x1 = 0.01701): 0.781 ± 0.033 mPa·s
- viscosity (323.15 K, x1 = 0.02175): 0.788 ± 0.033 mPa·s
- viscosity (323.15 K, x1 = 0.02663): 0.792 ± 0.033 mPa·s
- viscosity (323.15 K, x1 = 0.03255): 0.805 ± 0.033 mPa·s
- viscosity (323.15 K, x1 = 0.0357): 0.812 ± 0.033 mPa·s
- viscosity (323.15 K, x1 = 0.04024): 0.818 ± 0.033 mPa·s
- viscosity (328.15 K, x1 = 0.006359): 0.745 ± 0.032 mPa·s
- viscosity (328.15 K, x1 = 0.01185): 0.75 ± 0.032 mPa·s
- viscosity (328.15 K, x1 = 0.01701): 0.758 ± 0.032 mPa·s
- viscosity (328.15 K, x1 = 0.02175): 0.764 ± 0.032 mPa·s
- viscosity (328.15 K, x1 = 0.02663): 0.768 ± 0.032 mPa·s
- viscosity (328.15 K, x1 = 0.03255): 0.779 ± 0.033 mPa·s
- viscosity (328.15 K, x1 = 0.0357): 0.786 ± 0.033 mPa·s
- viscosity (328.15 K, x1 = 0.04024): 0.791 ± 0.033 mPa·s
